The values below come from patent publication US12122764B2, “IKAROS zinc finger family degraders and uses thereof” (Gilead Sciences, Inc., priority 2021, dated 2024).

Structures are written as SMILES.

The target in the first assay is T1, IKZF2 (Homo sapiens, UniProt Q96SW2+Q9UKS7).
T1 construct: expressed in transfected cells
T1 sequence (Q9UKS7 1-500 isoform Q9UKS7-2): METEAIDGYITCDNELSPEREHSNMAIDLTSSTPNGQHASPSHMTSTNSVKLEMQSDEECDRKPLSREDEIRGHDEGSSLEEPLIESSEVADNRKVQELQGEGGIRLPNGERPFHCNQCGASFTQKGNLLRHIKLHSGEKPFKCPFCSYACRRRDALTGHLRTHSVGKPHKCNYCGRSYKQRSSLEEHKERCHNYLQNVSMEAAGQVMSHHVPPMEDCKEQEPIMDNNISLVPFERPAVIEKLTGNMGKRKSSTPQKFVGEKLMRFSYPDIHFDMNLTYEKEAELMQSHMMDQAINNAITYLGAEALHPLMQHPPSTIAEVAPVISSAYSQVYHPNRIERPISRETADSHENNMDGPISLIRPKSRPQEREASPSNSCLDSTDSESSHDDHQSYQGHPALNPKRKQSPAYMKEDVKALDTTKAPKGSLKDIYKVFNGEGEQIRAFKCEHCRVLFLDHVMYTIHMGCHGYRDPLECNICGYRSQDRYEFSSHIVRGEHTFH
T1 sequence (Q96SW2 whole entry): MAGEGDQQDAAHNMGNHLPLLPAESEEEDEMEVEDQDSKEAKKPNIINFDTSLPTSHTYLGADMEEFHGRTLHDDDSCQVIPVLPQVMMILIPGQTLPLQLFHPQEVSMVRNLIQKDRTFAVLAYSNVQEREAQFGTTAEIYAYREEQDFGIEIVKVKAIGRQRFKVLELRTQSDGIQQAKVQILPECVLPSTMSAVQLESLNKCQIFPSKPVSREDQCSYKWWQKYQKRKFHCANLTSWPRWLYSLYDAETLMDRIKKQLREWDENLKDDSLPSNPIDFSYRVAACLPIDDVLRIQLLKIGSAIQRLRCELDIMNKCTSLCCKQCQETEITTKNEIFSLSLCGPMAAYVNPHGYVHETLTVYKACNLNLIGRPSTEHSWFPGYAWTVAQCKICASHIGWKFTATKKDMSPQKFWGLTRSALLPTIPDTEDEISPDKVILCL
T1 sequence (Q16531 whole entry partner): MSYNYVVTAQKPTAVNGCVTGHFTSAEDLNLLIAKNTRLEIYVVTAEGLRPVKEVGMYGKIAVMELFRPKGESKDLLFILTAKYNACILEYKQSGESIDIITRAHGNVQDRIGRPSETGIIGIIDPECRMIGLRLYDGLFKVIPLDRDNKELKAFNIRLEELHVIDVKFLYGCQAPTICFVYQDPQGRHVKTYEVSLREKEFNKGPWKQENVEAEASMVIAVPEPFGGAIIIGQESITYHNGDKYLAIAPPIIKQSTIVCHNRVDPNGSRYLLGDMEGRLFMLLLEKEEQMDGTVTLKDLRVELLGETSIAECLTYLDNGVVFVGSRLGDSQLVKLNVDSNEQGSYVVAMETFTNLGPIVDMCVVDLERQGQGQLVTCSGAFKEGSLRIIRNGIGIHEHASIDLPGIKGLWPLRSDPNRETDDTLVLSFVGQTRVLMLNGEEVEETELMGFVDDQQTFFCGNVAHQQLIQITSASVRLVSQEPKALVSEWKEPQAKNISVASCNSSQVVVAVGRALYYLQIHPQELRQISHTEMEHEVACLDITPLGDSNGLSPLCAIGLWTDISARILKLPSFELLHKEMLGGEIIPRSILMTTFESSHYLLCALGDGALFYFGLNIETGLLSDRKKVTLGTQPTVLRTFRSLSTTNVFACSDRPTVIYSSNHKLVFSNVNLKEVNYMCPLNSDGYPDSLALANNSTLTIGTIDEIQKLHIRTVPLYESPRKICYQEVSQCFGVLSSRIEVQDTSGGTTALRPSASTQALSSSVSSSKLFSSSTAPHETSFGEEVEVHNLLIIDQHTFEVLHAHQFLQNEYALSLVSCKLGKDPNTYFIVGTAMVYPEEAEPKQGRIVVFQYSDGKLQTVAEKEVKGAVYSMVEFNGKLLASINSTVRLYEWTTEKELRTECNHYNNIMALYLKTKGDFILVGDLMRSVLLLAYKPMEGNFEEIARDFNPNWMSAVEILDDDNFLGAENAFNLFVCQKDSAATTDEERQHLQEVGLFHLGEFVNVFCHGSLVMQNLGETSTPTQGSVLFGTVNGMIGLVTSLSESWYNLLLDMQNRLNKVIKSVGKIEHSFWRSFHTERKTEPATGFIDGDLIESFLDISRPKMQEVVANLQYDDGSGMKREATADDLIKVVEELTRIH
In words: HiBiT protein tagging assay, in vitro IKZF2 degradation (HEK293). It counts as cell-based. To be noted: IKZF2-HiBiT reporter Flp-In T-REx HEK293 cells, doxycycline-induced, compound overnight (18-24 hr), normalized to DMSO control. On the procedure: In vitro degradation of IKZF1 and IKZF2 was measured using HiBiT protein tagging and detection technology (Promega).
HiBiT technology (Promega) was used to develop the quantitative assays to measure the cellular IKZFs level by tagging an 11 amino acid HiBit peptides VSGWRLFKKIS (SEQ ID NO:1) to the protein of interest. Reporter plasmids were generated by fusing a linker sequence (GSSGGSSG; SEQ ID NO:2) followed by the HiBiT tag at the C terminus of IKZF1 and IKZF2. The fusion fragments were subsequently cloned into pcDNA5 pcDNA™5/FRT/TO plasmids (Thermo Fisher, cat #V652020) downstream of the Tetracycline operator. The resulting plasmids were co-transfected with pOG44 Flp-Recombinase Expression Vector (Thermo Fisher, cat #V600520) into Flp-In™ T-REx HEK293 line (Thermo Fisher, cat #R78077) and a stable cell pool was selected by adding 100 μg/ml of Hygromycin (Thermo Fisher, cat #10687010). The reporter cell enabled Tet-On inducible reporter expression from a single copy of the integrated gene.
On Day 1, Cells were grown to ˜80% confluency in TC medium (DMEM Glutamax (Gibco10569), 10% Tet free FBS (Takara 631106), and PenStrep Glutamin (Gibco 10378)) in tissue culture flasks. Doxycycline was then added to a final concentration of 1 μg/ml to induce reporter expression at 37° C. overnight.
On Day 2, 125 nL of serially-diluted solution of testing compounds were dispensed into 384-well white solid assay plates via ECHO acoustic liquid handler. Cells were lifted by 0.25% Trypsin (Gibco 25200) then pelleted by centrifugation (Beckman Avanti J-E) at 500×g for 5 min. Cell pellets were resuspended in TC medium at the concentration of 3e5/mL and 25 μL of cell suspension were added into each well of compound-spotted plates. The plates were returned to a 37° C. incubator overnight (18-24 hr).
On Day 3, assay plates were removed from the TC incubator and 25 μL of Nano-Glo lytic detection system (Promega, cat #N3030) was added to each well. Plates were incubated at r.t. for 3 min with shaking, and luminescence was read using an Envision reader (Perkin Elmer).
All raw data was normalized to DMSO control (final concentration: 0.5%) wells as POC and plotted out for EC50 and Dmax (Maximum degradation at the highest concentration tested in the assay).
Background: With HiBiT, luminescence reflects the tagged protein that the partner subunit can reach.
As for `O=C1CCC(N2Cc3cc(O[C@@H]4CN(Cc5ccccc5)CC[C@H]4N4CC(Oc5ccccc5Cl)C4)ccc3C2=O)C(=O)N1` (relative stereo) [Example 54, 3-(5-(((3,4-trans)-1-benzyl-4-(3-(2-chlorophenoxy)azetidin-1-yl)piperidin-3-yl)oxy)-1-oxoisoindolin-2-yl)piperidine-2,6-dione], the “IKZF2 Dmax (maximum degradation at the highest concentration tested)” value worked out at 94%.

Staying with this assay, now noted: IKZF2-HiBiT reporter Flp-In T-REx HEK293 cells, doxycycline-induced, compound overnight (18-24 hr), normalized to DMSO control; read-out: IKZF2 Dmax (maximum degradation at the highest concentration tested).
Take `C[C@@H](c1ccccc1)N1CC[C@H](NCc2ccccc2)[C@@H](Oc2ccc3c(c2)CN(C2CCC(=O)NC2=O)C3=O)C1` (mixture of isomers) [Example 50]: the Dmax worked out at 71%.

For `O=C1CCC(N2Cc3cc(OC4CN(Cc5ccccn5)CCC4NCc4ccccc4)ccc3C2=O)C(=O)N1` (racemic) [Example 8], the Dmax was found to be 64%. On the same count and under the same terms, the same measure for `O=C1CCC(N2Cc3cc(O[C@H]4CN(Cc5ccc(F)c(F)c5)CC[C@@H]4NCc4ccccc4)ccc3C2=O)C(=O)N1` (mixture of isomers) [Example 22]: 90%; for `N[C@H]1CCN(Cc2ccccc2)C[C@@H]1Oc1ccc2c(c1)CN(C1CCC(=O)NC1=O)C2=O` (some centres unmarked) [Example 42a]: 98%; for `O=C1CCC(N2Cc3cc(O[C@H]4CN(Cc5ccc(Cl)cc5)CC[C@@H]4NCc4ccccc4)ccc3C2=O)C(=O)N1` (mixture of isomers) [Example 30]: 95%. On the same count and under the same terms, next, `O=C1CCC(N2Cc3cc(OC4CN(Cc5ccccc5)CCC4NCCc4ccccc4)ccc3C2=O)C(=O)N1` (racemic) [Example 35]: 98%; `N[C@@H]1CCN(Cc2ccccc2)C[C@H]1Oc1ccc2c(c1)CN(C1CCC(=O)NC1=O)C2=O` (relative stereo) [Example 42, 3-(5-((trans-4-amino-1-benzylpiperidin-3-yl)oxy)-1-oxoisoindolin-2-yl)piperidine-2,6-dione]: 96%. Same read-out and setting: next, `O=C1CCC(N2Cc3cc(O[C@H]4CN(CCC(F)(F)F)CC[C@@H]4NCc4ccccc4)ccc3C2=O)C(=O)N1` (mixture of isomers) [Example 52]: 27%; `O=C1CCC(N2Cc3cc(OC4CN(Cc5ccccc5)CCC4NCc4ccccc4)ccc3C2=O)C(=O)N1` (racemic) [Example 2]: 94%; `CCOC1CN(C2CCN(Cc3ccccc3)CC2Oc2ccc3c(c2)CN(C2CCC(=O)NC2=O)C3=O)C1` (racemic) [Example 58]: 96%. For `O=C1CCC(N2Cc3cc(O[C@H]4CN(CCF)CC[C@@H]4NCc4ccccc4)ccc3C2=O)C(=O)N1` (mixture of isomers) [Example 53], the Dmax was found to be 77%.

With `CS(=O)(=O)NC1CCN(Cc2ccccc2)CC1Oc1ccc2c(c1)CN(C1CCC(=O)NC1=O)C2=O` (stereo not drawn) [Example 47, N-((3,4-trans)-1-benzyl-3-((2-(2,6-dioxopiperidin-3-yl)-1-oxoisoindolin-5-yl)oxy)piperidin-4-yl)methanesulfonamide], the Dmax is 62%. Still for that read-out and setting: next, `O=C1CCC(N2Cc3cc(OC4CN(Cc5ccccc5)CCC4NCCF)ccc3C2=O)C(=O)N1` (racemic) [Example 59]: 86%; `CCNC1CCN(Cc2cccc(-c3ccccc3)c2)CC1Oc1ccc2c(c1)CN(C1CCC(=O)NC1=O)C2=O` (racemic) [Example 60]: 83%; `CC(=O)NC1CCN(Cc2ccccc2)CC1Oc1ccc2c(c1)CN(C1CCC(=O)NC1=O)C2=O` (stereo not drawn) [Example 48, N-((3,4-trans)-1-benzyl-3-((2-(2,6-dioxopiperidin-3-yl)-1-oxoisoindolin-5-yl)oxy)piperidin-4-yl)acetamide]: 69%. Still for that read-out and setting: the same measure for `CC(C)N[C@H]1CCN(Cc2nccs2)C[C@@H]1Oc1ccc2c(c1)CN(C1CCC(=O)NC1=O)C2=O` (some centres unmarked) [Example 62]: 103%. Same read-out and setting: the same measure for `O=C1CCC(N2Cc3cc(O[C@H]4CN(c5ccccc5)C[C@@H]4NCc4ccccc4)ccc3C2=O)C(=O)N1` (stereo partly drawn) [Example 39, 3-(5-(((3S,4S)-4-(benzylamino)-1-phenylpyrrolidin-3-yl)oxy)-1-oxoisoindolin-2-yl)piperidine-2,6-dione]: 39%; for `COc1ccc(CN2CC[C@H](NCc3ccccc3)[C@@H](Oc3ccc4c(c3)CN(C3CCC(=O)NC3=O)C4=O)C2)cc1` (mixture of isomers) [Example 33]: 94%. Consider `CC(C)N[C@H]1CCN(Cc2cnccn2)C[C@@H]1Oc1ccc2c(c1)CN(C1CCC(=O)NC1=O)C2=O` (some centres unmarked) [Example 68], for which the Dmax turned out to be 74%. With `O=C1CCC(N2Cc3cc(O[C@H]4CN(Cc5cccc(F)c5F)CC[C@@H]4NCc4ccccc4)ccc3C2=O)C(=O)N1` (mixture of isomers) [Example 20], the Dmax was 86%. Still for that read-out and setting: next, `O=C1CCC(N2Cc3cc(O[C@H]4CN(Cc5ccccc5)CC[C@@H]4NCc4ccccc4)ccc3C2=O)C(=O)N1` (some centres unmarked) [Example 2a]: 97%. Regarding `CCN(CC)[C@H]1CCN(Cc2ccc(F)cc2)C[C@@H]1Oc1ccc2c(c1)CN(C1CCC(=O)NC1=O)C2=O` (some centres unmarked) [Example 65], the Dmax is 99%. On the same count and under the same terms, next, `CCNC1CCN(Cc2ccc3ccccc3c2)CC1Oc1ccc2c(c1)CN(C1CCC(=O)NC1=O)C2=O` (racemic) [Example 56]: 96%; `CN1CC[C@@H](NCc2ccccc2)[C@H](Oc2ccc3c(c2)CN(C2CCC(=O)NC2=O)C3=O)C1` (relative stereo) [Example 1, 3-(5-((trans-4-(benzylamino)-1-methylpiperidin-3-yl)oxy)-1-oxoisoindolin-2-yl)piperidine-2,6-dione]: 53%. Still for that read-out and setting: next, `O=C1CCC(N2Cc3cc(OC4CN(Cc5ccccc5)CCC4Nc4ccccc4)ccc3C2=O)C(=O)N1` (stereo not drawn) [Example 43, 3-(5-(((3,4-trans)-1-benzyl-4-(phenylamino)piperidin-3-yl)oxy)-1-oxoisoindolin-2-yl)piperidine-2,6-dione]: 48%; `O=C1CCC(N2Cc3cc(O[C@H]4CN(Cc5ccccc5Cl)CC[C@@H]4NCc4ccccc4)ccc3C2=O)C(=O)N1` (mixture of isomers) [Example 3]: 85%. Still for that read-out and setting: next, `O=C1CCC(N2Cc3cc(O[C@@H]4CN(CC(F)(F)F)CC[C@H]4NCc4ccccc4)ccc3C2=O)C(=O)N1` (relative stereo) [Example 40, 3-(5-((trans-4-(benzylamino)-1-(2,2,2-trifluoroethyl)piperidin-3-yl)oxy)-1-oxoisoindolin-2-yl)piperidine-2,6-dione]: 57%; `CC(C)N1CCC(NCc2ccccc2)C(Oc2ccc3c(c2)CN(C2CCC(=O)NC2=O)C3=O)C1` (racemic) [Example 5]: 47%; `CC(C)N[C@H]1CCN(Cc2ncco2)C[C@@H]1Oc1ccc2c(c1)CN(C1CCC(=O)NC1=O)C2=O` (some centres unmarked) [Example 67]: 64%. Regarding `O=C1CCC(N2Cc3cc(OC4CN(Cc5ccccc5)CCC4NCc4ccncc4)ccc3C2=O)C(=O)N1` (racemic) [Example 15], the Dmax came out at 73%. The same measure, in the same setting: the same measure for `CC(C)N[C@H]1CCN(Cc2ccn(C)n2)C[C@@H]1Oc1ccc2c(c1)CN(C1CCC(=O)NC1=O)C2=O` (some centres unmarked) [Example 66]: 34%. On the same count and under the same terms, next, `CCNC1CCN(Cc2ccc(F)cc2)CC1Oc1ccc2c(c1)CN(C1CCC(=O)NC1=O)C2=O` (racemic) [Example 27]: 92%. Consider `O=C1CCC(N2Cc3cc(O[C@H]4CN(Cc5cccc(F)c5)CC[C@@H]4NCc4ccccc4)ccc3C2=O)C(=O)N1` (mixture of isomers) [Example 19], for which the Dmax was 89%. The same measure, in the same setting: next, `CCN(CC)C1CCN(Cc2ccccc2)CC1Oc1ccc2c(c1)CN(C1CCC(=O)NC1=O)C2=O` (racemic) [Example 11]: 90%. On the same count and under the same terms, the same measure for `CCN[C@H]1CCN(Cc2ccc(F)cc2F)C[C@@H]1Oc1ccc2c(c1)CN(C1CCC(=O)NC1=O)C2=O` (mixture of isomers) [Example 38]: 97%; for `CCN(CC)C1CCN(Cc2ccc3ccccc3c2)CC1Oc1ccc2c(c1)CN(C1CCC(=O)NC1=O)C2=O` (racemic) [Example 57]: 98%. Still for that read-out and setting: the same measure for `O=C1CCC(N2Cc3cc(OC4CN(Cc5ccccc5)CCC4NC4CC4)ccc3C2=O)C(=O)N1` (racemic) [Example 63]: 94%; for `O=C1CCC(N2Cc3cc(O[C@H]4CN(Cc5ccc(F)cc5)CC[C@@H]4NCc4ccccc4)ccc3C2=O)C(=O)N1` (mixture of isomers) [Example 18]: 97%. For the molecule `N#CCN1CCC(NCc2ccccc2)C(Oc2ccc3c(c2)CN(C2CCC(=O)NC2=O)C3=O)C1` (racemic) [Example 41], the Dmax is 28%. The same measure, in the same setting: the same measure for `O=C1CCC(N2Cc3cc(O[C@H]4CN(Cc5ccccc5)CC[C@@H]4NCc4cccc(F)c4)ccc3C2=O)C(=O)N1` (mixture of isomers) [Example 29]: 88%.
